Test results published in patent US4314028A, “Fermentation process for producing tallysomycin compounds” (priority 1980, dated 1982).

Tests used:
[1] = Acute toxicity, single dose LD50; assay type: in vivo, dd mice; settings: ip, 30 days observation, copper-chelated form unless otherwise stated
Protocol: Graded doses of test compounds were administered intraperitoneally to groups of dd mice. The injection was given one time only or once daily for 9 consecutive days. Death or survival of the animals was recorded for 30 days after the last dose of test compound to calculate the single or multiple median lethal dose (LD50).

Escherichia coli NIHJ = assay: MIC, two-fold agar dilution method; assay type: cell-based; settings: nutrient agar
Protocol: (§1) The minimum inhibitory concentrations (MIC) of the semibiosynthetic tallysomycin derivatives of the present invention were determined against fungi and gram-positive, gram-negative and acid-fast bacteria by the two-fold agar dilution method. Nutrient agar was used for bacteria and Sabouraud agar for fungi. The results are shown in the table below comparatively with tallysomycin A and B.

[2] = test system: Candida albicans IAM 4888; assay: MIC, two-fold agar dilution method; assay type: cell-based; settings: Sabouraud agar
Protocol: as §1

[3] = test system: Bacillus subtilis PCI 219; assay: MIC, two-fold agar dilution method; assay type: cell-based; settings: nutrient agar
Protocol: as §1

[4] = test system: Staphylococcus aureus Smith; assay: MIC, two-fold agar dilution method; assay type: cell-based; settings: nutrient agar
Protocol: as §1

Proteus mirabilis A9554 = assay: MIC, two-fold agar dilution method; assay type: cell-based; settings: nutrient agar
Protocol: as §1

Sarcina lutea PCI1001 = assay: MIC, two-fold agar dilution method; assay type: cell-based; settings: nutrient agar
Protocol: as §1

[5] = test system: Aspergillus fumigatus IAM 2593; assay: MIC, two-fold agar dilution method; assay type: cell-based; settings: Sabouraud agar
Protocol: as §1

Mycobacterium 607 = assay: MIC, two-fold agar dilution method; assay type: cell-based; settings: nutrient agar
Protocol: as §1

Melanotic melanoma B16 = assay: Antitumor activity in mice, melanotic melanoma B16; assay type: in vivo, BDF1 mice; settings: copper-chelated form unless otherwise stated; for Antitumor activity B16 (ID50): ip, once daily 9 days, 50% inhibition of tumor growth, day 16, 23040 min; for Antitumor therapeutic index B16: single dose LD50/ID50
Text: (§2) The antitumor activity of the tallysomycin derivatives was examined in four experimental tumor systems in mice. Lymphocytic leukemia P388 and Lewis lung carcinoma were implanted intraperitoneally into BDF1 mice of either sex at an inoculum size of 3×10^5 and 5×10^5 cells per mouse, respectively. Sarcoma 180 ascites tumor was inoculated intraperitoneally into male dd-strain mice with […] per mouse. Melanotic melanoma B16 was implanted subcutaneously into BDF1 mice with 5×10^5 cells per mouse. Twenty-four hours after the implantation of tumor cells, graded doses of test compounds were administered to mice intraperitoneally in an injection volume of 0.2 ml. per 10 grams of body weight. Test compounds were given once daily for 9 days (qd 1→9 schedule) except for the mice inoculated with Lewis lung carcinoma which were treated for 11 days (qd 1→11). Death or survival of the treated and non-treated (control) animals was recorded daily during the observation period of 45 days after the implantation of tumor cells, and the median survival time was calculated for each of the test (T) and control (C) groups. […] The actual dose giving a T/C of 125% was estimated by linear regression analysis and defined as the effective dose 125 or ED125. The effective dose 150 (ED150) was employed for the evaluation of antitumor effect against Sarcoma 180. In the B16 melanoma experiment the tumor size was measured on day 16 after tumor inoculation, and the dose giving 50% inhibition of tumor growth (ID50) was calculated from regression lines.
(§3) The antitumor therapeutic index was calculated for each derivative from the ratio of toxicity and antitumor activity.

[6] = test system: lysogenic bacterium E. coli W1709 (λ); assay: Prophage induction of lysogenic bacterium (ILB activity); assay type: cell-based; settings: t/c ratio of plaque counts greater than 3.0
Protocol: The activity of prophage induction of lysogenic bacterium E. coli W1709 (λ) was determined according to the method disclosed by Lein et al. in Nature 196: 783-784 (1962). The plaque count was made on the agar plate containing test compound (t) and control plate (c). A t/c ratio of the plaque counts of greater than 3.0 was defined to be a significant level and lysogenic induction activity (ILB activity) was expressed by the minimum inducible concentration of the test compound.

[7] = test system: Lymphocytic leukemia P388; assay: animal or person; assay type: in vivo, BDF1 mice; settings: copper-chelated form unless otherwise stated; for Antitumor activity P388 (ED125): ip, once daily 9 days, dose giving T/C survival of 125%; for Antitumor therapeutic index P388: single dose LD50/ED125
Text: as §2, §3

Sarcoma 180 = assay: animal or person; assay type: in vivo, dd-strain mice; settings: copper-chelated form unless otherwise stated; for Antitumor activity S180 (ED150): ip, once daily 9 days, effective dose 150, survival; for Antitumor therapeutic index S180: single dose LD50/ED150
Text: as §2, §3

[8] = test system: Mycobacterium smegmatis strain M6-3; assay: Relative antibacterial potency, paper-disc agar diffusion method; assay type: cell-based; settings: relative to tallysomycin A standard=1000 mcg/mg
Protocol: The relative antibacterial potencies (tallysomycin A standard=1000 mcg/mg) of the tallysomycin derivatives were determined by the paper-disc agar diffusion method using Mycobacterium smegmatis strain M6-3 as the assay organism.

SMILES | LD50 single dose [1] [mg/kg/day] | minimum inhibitory concentration (MIC) (Escherichia coli NIHJ) | minimum inhibitory concentration (MIC) [2] | minimum inhibitory concentration (MIC) [3] | minimum inhibitory concentration (MIC) [4] | minimum inhibitory concentration (MIC) (Proteus mirabilis A9554) | minimum inhibitory concentration (MIC) (Sarcina lutea PCI1001) | minimum inhibitory concentration (MIC) [5] | minimum inhibitory concentration (MIC) (Mycobacterium 607) | Antitumor activity B16 (ID50) (Melanotic melanoma B16) [mg/kg/day] | Antitumor therapeutic index B16 (Melanotic melanoma B16) | ILB activity (minimum inducible concentration) [6] [µg/mL] | Antitumor activity P388 (ED125) [7] [mg/kg/day] | Antitumor therapeutic index P388 [7] | Antitumor activity S180 (ED150) (Sarcoma 180) [mg/kg/day] | Antitumor therapeutic index S180 (Sarcoma 180) | Antibacterial potency [8] [μ/mg]
Cc1c(N)nc(C(CC(N)=O)NCC(N)C(N)=O)nc1C(=O)NC(C(=O)NC(C)C(O)CC(=O)NC(C(=O)NC(OC1OC(C)C(N)C(O)C1O)C(O)c1nc(-c2nc(C(=O)NCCCN(C)C)cs2)cs1)C(C)O)C(OC1OC(CO)C(O)C(O)C1OC1OC(CO)C(O)C(OC(N)=O)C1O)c1c[nH]cn1 (centres unmarked) [Tallysomycin S7b] | 30 | 0.4 | > 50 | 0.1 | 6.3 | 6.3 | 12.5 | 0.4 | 3.1 | 0.16 | 188 | 0.08 | 2.1 | 14 | 0.14 | 214 | 380
CNCCCNC(=O)CC(N)CCCNC(=O)c1csc(-c2csc(C(O)C(NC(=O)C(NC(=O)CC(O)C(C)NC(=O)C(NC(=O)c3nc(C(CC(N)=O)NCC(N)C(N)=O)nc(N)c3C)C(OC3OC(CO)C(O)C(O)C3OC3OC(CO)C(O)C(OC(N)=O)C3O)c3c[nH]cn3)C(C)O)OC3OC(C)C(N)C(O)C3O)n2)n1 (centres unmarked) [Tallysomycin S11a] | 18 | 0.1 | 1.6 | 0.025 | 0.8 | 0.2 | 0.2 | 0.8 | 0.1 |  |  | 0.08 | 0.60 | 30 |  |  | 570
Cc1c(N)nc(C(CC(N)=O)NCC(N)C(N)=O)nc1C(=O)NC(C(=O)NC(C)C(O)CC(=O)NC(C(=O)NC(OC1OC(C)C(N)C(O)C1O)C(O)c1nc(-c2nc(C(=O)NCC(O)CN)cs2)cs1)C(C)O)C(OC1OC(CO)C(O)C(O)C1OC1OC(CO)C(O)C(OC(N)=O)C1O)c1c[nH]cn1 (centres unmarked) [Tallysomycin S4b] | 13 | 0.4 | 25 | 0.006 | 0.8 | 0.4 | 3.1 | 0.8 | 0.003 | 0.50 | 26 |  | > 3.0 | < 4 | 0.13 | 100 | 405
Cc1c(N)nc(C(CC(N)=O)NCC(N)C(N)=O)nc1C(=O)NC(C(=O)NC(C)C(O)CC(=O)NC(C(=O)NC(OC1OC(C)C(N)C(O)C1O)C(O)c1nc(-c2nc(C(=O)NCCCC(N)CC(=O)NCCCN(CCO)CCO)cs2)cs1)C(C)O)C(OC1OC(CO)C(O)C(O)C1OC1OC(CO)C(O)C(OC(N)=O)C1O)c1c[nH]cn1 (centres unmarked) [Tallysomycin S8a] | 42 | 0.1 | 12.5 | 0.006 | 0.2 | 0.4 | 0.4 | 0.8 | 0.1 |  |  | 0.005 | 0.78 | 54 |  |  | 550
